{"source": "patent US20260209152A1", "about": "“Substituted Hydroxystilbene Compounds and Derivatives, Synthesis and Uses Thereof” (Kynan Duke IP, LLC, priority 2019, published 2026)", "key": {"Pancreatic MIA PaCa-2": {"test_system": "Pancreatic MIA PaCa-2", "test": "CellTiter Glo cell viability assay", "format": "cell-based, human", "how_it_was_run": "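MIA PaCa-2 human pancreatic cancer cells were plated in 96-well plates, 1.7*10^3 cells/well in quadruplicate, and compounds were added as serial dilutions to build dose-response curves. Viability was read by CellTiter Glo Luminescence (Promega) on a Varioskan LUX reader. Relative luminescence was plotted against log dose, and IC50 was obtained by nonlinear regression in GraphPad Prism 7.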"}, "[1]": {"test_system": "IL-2 secretion from human CD4-positive T-cells stimulated with antiCD2/antiCD3/antiCD28-coated beads", "test": "T-cell IL-2 assay (assay number 1297, 1298)", "format": "cell-based", "conditions": "for Max Eff.: IL-2 (1297): highest effect as percentage of control maximum effect; for EC50: inhibition of IL-2 secretion, human CD4-positive T-cells, read-out: Abs EC50: IL-2 (1297)", "protocol": "Inhibition of IL-4 and IL-2 secretion from human CD4-positive T-cells stimulated with antiCD2/antiCD3/antiCD28-coated beads. LEO Pharma Open Innovation assay number 1297, 1298, 1299.\nThen the level of secreted of IL-4 is measured in the culture supernatant using electrochemiluminescence (MSD kits, Meso Scale Discovery), IL-2 is measured by proximity homogenous time-resolved fluorescence (HTRF) and the amount of living cells is measured by addition of resazurin (PrestoBlue®) to allow identifying compounds that inhibit T-cell proliferation or viability.\n• Peripheral blood mononuclear cells (PBMC) are isolated from fresh human buffy coats by centrifugation on Lymphoprep® following instructions from Sebmate™ (Stemcell). • The cells are resuspended in 30 ml of PBS+2% Serum and counted. • CD4 positive T-cells are isolated from freshly isolated PBMC using EasySep™ humane CD4+ T-cell Isolation Kit (Catalog #17952) and following the manufacturer's protocol. • Cells are spun down and resuspended in freezing medium (X-vivo 15+10% FBS+5% DMSO) • Cells are frozen in aliquots of 3×10^7 cells/vial matching one 384 plate. Cells are place in Coolcell box and place in −80° C. freezer for one day then transferred to the −150° C. freezer in a prechilled box.\n• Prepare assay medium: 500 ml X-Vivo 15+5 ml Glutamax (2 mM final)+5 ml pen/strep (100 U/ml final). • Add 5 μL medium to the wells of a 384 well plate (Greiner cat. No 788986). • CD4+ Cells: Thaw frozen cells from −150° C. freezer in 37° C. bath, and pipette the cells into 10 ml medium. Spin 10 min @170 g. • Resuspend pellet in 3.5 ml per 2.5×10^7 cells and add 10 μL per well to the plate (40000 cells/well) • Test compounds: Prepare compound-containing source plate, i.e. titrations in DMSO to be transferred to the assay plate. • Add 25 nL compounds and controls from the source plate to the assay plate (with cells). • Beads (T Cell Activation/Expansion Kit-human, Miltenyi Biotech, cat. no. 130-091-441): Coat beads with antibodies according to the kit procedure. • Add 10 μL beads to each well except for the negative controls. One bead per cell. Add 10 μL medium to the negative controls. • Incubate plates at 37° C., 5% CO2/95% air for 2 days.\n• Remove plates from incubation and equilibrate to room temperature for 30 minutes. • IL-4 concentration in 10 μL supernatant is measured using an MSD IL-4 384-plate kit (Custom made) according to manufacturer protocol. • IL-2 concentrations in the supernatant is measured by an IL-2 HTRF kit, CisBio, cat. No 62HIL02PEH. • Add 4 μL medium to white proxi 384-well plates • Add 1 μL supernatant. • Add 4 μL mHTRF mix (each diluted 1:300 in ⅔ reconstitution buffer and ⅓ assay medium). • Spin the plates for 1 minute at 170 g • Seal and incubate overnight and read fluorescence in a plate reader • The amount of viable cells is measured by PrestoBlue® reagent • Add 15 μL diluted PrestoBlue® reagent (resazurin) corresponding to 2.5 μL Prestoblue/well to the assay plate. • Incubate overnight at 37° C./5% CO2. The fluorescence in the wells is measured (Ex615/Em 535).\nIL-4 concentration in the supernatants is measured using electrochemiluminescence (MSD kits, Meso Scale Discovery). IL-2 concentration in the supernatants is measured using homogeneous time-resolved fluorescence resonance (TR-FRET). The assay is quantified by measuring fluorescence at 665 nm (proportional to IL-2 concentration) and 620 nm (control). A ratio 665/620*1000 is calculated.\nThe capacity of the test compound to inhibit IL-4 and IL-2 release is normalized to the signal in the negative control wells with un-stimulated T-cells."}, "[2]": {"conditions": "Homo sapiens, MIA PaCa-2, MIA PaCa-2/CRL-1420, 11 dilutions 3-0.00001 μM, Table 6, read-out: IC50"}, "[3]": {"conditions": "Homo sapiens, MIA PaCa-2, Table 5A: 11 dilutions 3-0.00001 μM, single experiments Exp E-K, read-out: IC50"}, "[4]": {"conditions": "Table 5A: 11 dilutions 3-0.00001 μM, single experiments Exp E-K, read-out: IC50"}, "[5]": {"conditions": "Homo sapiens, MIA PaCa-2, Table 5A: 11 dilutions 3-0.00001 μM, average of experiments, read-out: IC50 average"}, "[6]": {"conditions": "Homo sapiens, MIA PaCa-2, 72 h, 3 Days of treatment, 18 2-fold dilutions 5-0.00003 μM, read-out: Average IC50"}, "[7]": {"conditions": "Homo sapiens, MIA PaCa-2, 72 h, Table 4: 3 Days of treatment, 18 2-fold dilutions 5-0.00003 μM, Average (1, 8) or single Exp A-D, read-out: IC50"}, "[8]": {"conditions": "Homo sapiens, MIA PaCa-2, 120 h, Day 5 upon drug treatment, 10 dosages 0.0001-20 μM (Compound 8: 18 dosages 0.000038146 to 5 μM), read-out: IC50"}}, "note": "Several values for one entry are separate records, joined by “and”; a condition that tells them apart may be missing. Identical values can stand only once. Like-named read-outs stand apart in the source and are kept apart here.", "data": [{"smiles": "CCOc1cc(O)cc(/C=C/c2ccc(NC=O)c(OC)c2)c1CC=C(C)C", "note": "[Compound 28, (E)-N-(4-(3-Ethoxy-5-hydroxy-2-(3-methylbut-2-en-1-yl)styryl)-2-methoxyphenyl)formamide]", "values": [{"measurement": "IC50", "setting": "Pancreatic MIA PaCa-2; [2]", "result": 0.0129, "unit": "µM"}, {"measurement": "IC50", "setting": "Pancreatic MIA PaCa-2; [3]", "result": "< 0.001", "unit": "µM"}, {"measurement": "IC50", "setting": "Pancreatic MIA PaCa-2; [4]", "result": "0.00094 µM and 0.000936 µM"}, {"measurement": "inhibition of IL-2 secretion, in words", "setting": "[1]", "result": "lower potency effect"}, {"measurement": "Max Eff.: IL-2 (1297)", "setting": "[1]", "result": 55, "unit": "%"}, {"measurement": "EC50", "setting": "[1]", "result": 4.26, "unit": "µM"}]}, {"smiles": "CCOc1cc(O)cc(/C=C/c2ccc(NC(=O)C(=O)O)c(OC)c2)c1CC=C(C)C", "note": "[Compound 35, (E)-2-((4-(3-Ethoxy-5-hydroxy-2-(3-methylbut-2-en-1-yl)styryl)-2-methoxyphenyl)amino)-2-oxoacetic acid]", "values": [{"measurement": "Max Eff.: IL-2 (1297)", "setting": "[1]", "result": 16, "unit": "%"}, {"measurement": "EC50", "setting": "[1]", "result": 5, "unit": "µM"}]}, {"smiles": "COc1cc(/C=C/c2cc(O)cc(OC)c2CC=C(C)C)ccc1NC=O", "note": "[Compound 27, (E)-N-(4-(5-hydroxy-3-methoxy-2-(3-methylbut-2-en-1-yl)styryl)-2-methoxyphenyl)formamide]", "values": [{"measurement": "IC50", "setting": "Pancreatic MIA PaCa-2; [2]", "result": 0.0214, "unit": "µM"}, {"measurement": "IC50", "setting": "Pancreatic MIA PaCa-2; [5]", "result": 0.015, "unit": "µM"}, {"measurement": "IC50", "setting": "Pancreatic MIA PaCa-2; [3]", "result": "0.01 to 0.1", "unit": "µM"}, {"measurement": "Fold more potent than 1 [KYN-001]", "setting": "Pancreatic MIA PaCa-2; MIA PaCa-2 cells", "result": "approximately 5"}, {"measurement": "IC50", "setting": "Pancreatic MIA PaCa-2; [4]", "result": "0.0147 µM and 0.0134 µM and 0.0168 µM"}, {"measurement": "Max Eff.: IL-2 (1297)", "setting": "[1]", "result": 46, "unit": "%"}, {"measurement": "EC50", "setting": "[1]", "result": 5, "unit": "µM"}]}, {"smiles": "CCOc1cc(O)cc(/C=C/c2ccc(O)c(O)c2)c1CC=C(C)C", "note": "[Compound 20, (E)-4-(3-Ethoxy-5-hydroxy-2-(3-methylbut-2-en-1-yl)styryl)benzene-1,2-diol]", "values": [{"measurement": "IC50", "setting": "Pancreatic MIA PaCa-2; [2]", "result": 0.0549, "unit": "µM"}, {"measurement": "Max Eff.: IL-2 (1297)", "setting": "[1]", "result": 34, "unit": "%"}, {"measurement": "EC50", "setting": "[1]", "result": 5, "unit": "µM"}]}, {"smiles": "COc1cc(/C=C/c2cc(O)cc(OC)c2CC=C(C)C)ccc1O", "note": "[Compound 1, (E)-3-(4-hydroxy-3-methoxystyryl)-5-methoxy-4-(3-methylbut-2-en-1-yl)phenol]", "values": [{"measurement": "IC50", "setting": "Pancreatic MIA PaCa-2; [6]", "result": 0.127, "unit": "µM"}, {"measurement": "IC50", "setting": "Pancreatic MIA PaCa-2; Homo sapiens, MIA PaCa-2, 72 h, Day 3 upon drug treatment, 10 dosages 0.0001-20 μM, read-out: IC50", "result": 0.204, "unit": "µM"}, {"measurement": "IC50", "setting": "Pancreatic MIA PaCa-2; [7]", "result": 0.888, "unit": "µM"}, {"measurement": "IC50", "setting": "Pancreatic MIA PaCa-2; [8]", "result": 0.0507, "unit": "µM"}, {"measurement": "IC50", "setting": "Pancreatic MIA PaCa-2; [2]", "result": 0.109, "unit": "µM"}, {"measurement": "IC50", "setting": "Pancreatic MIA PaCa-2; [5]", "result": 0.0806, "unit": "µM"}, {"measurement": "Max Eff.: IL-2 (1297)", "setting": "[1]", "result": 42, "unit": "%"}, {"measurement": "EC50", "setting": "[1]", "result": 5, "unit": "µM"}]}, {"smiles": "COc1cc(/C=C/c2cc(O)cc(OC)c2CC=C(C)C)ccc1NC(=O)CN", "note": "[Compound 31, (E)-2-amino-N-(4-(5-hydroxy-3-methoxy-2-(3-methylbut-2-en-1-yl)styryl)-2-methoxyphenyl)acetamide]", "values": [{"measurement": "IC50", "setting": "Pancreatic MIA PaCa-2; [3]", "result": 3.18, "unit": "µM"}, {"measurement": "Max Eff.: IL-2 (1297)", "setting": "[1]", "result": 36, "unit": "%"}, {"measurement": "EC50", "setting": "[1]", "result": 5, "unit": "µM"}]}, {"smiles": "CCOc1cc(O)cc(/C=C/c2ccc(O)c(OC)c2)c1CC=C(C)C", "note": "[Compound 8, (E)-3-Ethoxy-5-(4-hydroxy-3-methoxystyryl)-4-(3-methylbut-2-en-1-yl)phenol]", "values": [{"measurement": "IC50", "setting": "Pancreatic MIA PaCa-2; [6]", "result": 0.0181, "unit": "µM"}, {"measurement": "IC50", "setting": "Pancreatic MIA PaCa-2; [7]", "result": 0.21, "unit": "µM"}, {"measurement": "IC50", "setting": "Pancreatic MIA PaCa-2; [8]", "result": "~0.00047", "unit": "µM"}, {"measurement": "IC50", "setting": "Pancreatic MIA PaCa-2; [2]", "result": 0.0234, "unit": "µM"}, {"measurement": "IC50", "setting": "Pancreatic MIA PaCa-2; [5]", "result": 0.025, "unit": "µM"}, {"measurement": "Fold IC50", "setting": "Pancreatic MIA PaCa-2; IC50 of 1 [KYN-001] vs 8 [KYN-119], 3 Days", "result": 7.0}, {"measurement": "IC50", "setting": "Pancreatic MIA PaCa-2; Table 5A: 11 dilutions 3-0.00001 μM, average of experiments, read-out: IC50 average", "result": 0.0255, "unit": "µM"}, {"measurement": "Max Eff.: IL-2 (1297)", "setting": "[1]", "result": 51, "unit": "%"}, {"measurement": "EC50", "setting": "[1]", "result": 5, "unit": "µM"}]}]}
